Tested on: Rattus norvegicus
Conditions: short-term, duration: 28 days, oral, gavage, Sprague-Dawley

Structure (SMILES): O=C(O)C(F)(F)C(F)(F)C(F)(F)C(F)(F)C(F)(F)C(F)(F)C(F)(F)C(F)(F)C(F)(F)F [Perfluorodecanoic acid]
- LOEL (F, Clinical chemistry_Alanine aminotransferase): 1.25 mg/kg-day
- NOEL (F, Clinical chemistry_Albumin): 2.5 mg/kg-day
- LOEL (F, Clinical chemistry_Albumin/globulin ratio): 0.312 mg/kg-day
- LOEL (F, Clinical chemistry_Alkaline phosphatase): 0.312 mg/kg-day
- LOEL (F, Clinical chemistry_Aspartate aminotransferase): 1.25 mg/kg-day
- LOEL (F, Clinical chemistry_Cholesterol): 2.5 mg/kg-day
- LOEL (F, Clinical chemistry_Creatinine kinase): 1.25 mg/kg-day
- LOEL (F, Clinical chemistry_Direct bilirubin): 1.25 mg/kg-day
- LOEL (F, Clinical chemistry_Free thyroxine): 1.25 mg/kg-day
- LOEL (F, Clinical chemistry_Globulin): 0.312 mg/kg-day
- LOEL (F, Clinical chemistry_Indirect bilirubin): 2.5 mg/kg-day
- LOEL (F, Clinical chemistry_Sorbitol dehydrogenase): 2.5 mg/kg-day
- LOEL (F, Clinical chemistry_Testosterone): 0.312 mg/kg-day
- NOEL (F, Clinical chemistry_Thyroid stimulating hormone): 2.5 mg/kg-day
- LOEL (F, Clinical chemistry_Total bile acids): 1.25 mg/kg-day
- LOEL (F, Clinical chemistry_Total bilirubin): 1.25 mg/kg-day
- NOEL (F, Clinical chemistry_Total protein): 2.5 mg/kg-day
- NOEL (F, Clinical chemistry_Total thyroxine): 2.5 mg/kg-day
- LOEL (F, Clinical chemistry_Total triiodothyronine): 1.25 mg/kg-day
- NOEL (F, Clinical chemistry_Triglycerides): 2.5 mg/kg-day
- LOEL (F, Gene expression_Acox1): 0.156 mg/kg-day
- LOEL (F, Gene expression_Cyp2b1): 0.156 mg/kg-day
- LOEL (F, Gene expression_Cyp2b2): 0.156 mg/kg-day
- LOEL (F, Gene expression_Cyp4a1): 0.625 mg/kg-day
- LOEL (F, Hematology_Erythrocytes): 1.25 mg/kg-day
- LOEL (F, Hematology_Hematocrit): 1.25 mg/kg-day
- LOEL (F, Hematology_Hemoglobin): 1.25 mg/kg-day
- LOEL (F, Hematology_Mean corpuscular hemoglobin concentration): 2.5 mg/kg-day
- LOEL (F, Hematology_Mean corpuscular volume): 1.25 mg/kg-day
- LOEL (F, Hematology_Platelets): 2.5 mg/kg-day
- LOEL (F, Hematology_Reticulocytes): 1.25 mg/kg-day
- LOEL (F, Nonneoplastic effects_Bone marrow - Hypocellularity): 2.5 mg/kg-day
- NOEL (F, Nonneoplastic effects_Forestomach - Epithelium, hyperplasia): 2.5 mg/kg-day
- NOEL (F, Nonneoplastic effects_Forestomach - Inflammation, chronic active): 2.5 mg/kg-day
- NOEL (F, Nonneoplastic effects_Kidney - Nephropathy, chronic progressive): 2.5 mg/kg-day
- LOEL (F, Nonneoplastic effects_Liver - Hepatocyte, Necrosis): 2.5 mg/kg-day
- LOEL (F, Nonneoplastic effects_Liver - Hepatocyte, cytoplasmic alteration): 0.625 mg/kg-day
- LOEL (F, Nonneoplastic effects_Liver - Hepatocyte, hypertrophy): 1.25 mg/kg-day
- LOEL (F, Nonneoplastic effects_Liver - Hepatocyte, vacuolization cytoplasmic): 2.5 mg/kg-day
- NOEL (F, Nonneoplastic effects_Lymph nodes - Mandibular, atrophy): 2.5 mg/kg-day
- NOEL (F, Nonneoplastic effects_Lymph nodes - Mesenteric, atrophy): 2.5 mg/kg-day
- NOEL (F, Nonneoplastic effects_Nose - Olfactory epithelium, degeneration): 2.5 mg/kg-day
- NOEL (F, Nonneoplastic effects_Nose - Olfactory epithelium, hyperplasia): 2.5 mg/kg-day
- NOEL (F, Nonneoplastic effects_Nose - Olfactory epithelium, inflammation, suppurative): 2.5 mg/kg-day
- NOEL (F, Nonneoplastic effects_Nose - Respiratory epithelium, hyperplasia): 2.5 mg/kg-day
- NOEL (F, Nonneoplastic effects_Nose - Respiratory epithelium, inflammation, chronic active): 2.5 mg/kg-day
- NOEL (F, Nonneoplastic effects_Spleen - Atrophy): 2.5 mg/kg-day
- NOEL (F, Nonneoplastic effects_Spleen - Extramedullary hematopoiesis, increased): 2.5 mg/kg-day
- LOEL (F, Nonneoplastic effects_Thymus - Atrophy): 2.5 mg/kg-day
- NOEL (F, Nonneoplastic effects_Thymus - Lymphocyte, apoptosis): 2.5 mg/kg-day
- NOEL (F, Nonneoplastic effects_Thyroid gland - Follicular cell hypertrophy): 2.5 mg/kg-day
- LOEL (F, Organ weights_Liver - Absolute): 0.156 mg/kg-day
- LOEL (F, Organ weights_Liver - Relative): 0.156 mg/kg-day
- LOEL (F, Organ weights_R. adrenal gland - Absolute): 2.5 mg/kg-day
- NOEL (F, Organ weights_R. adrenal gland - Relative): 2.5 mg/kg-day
- LOEL (F, Organ weights_R. kidney - Absolute): 2.5 mg/kg-day
- LOEL (F, Organ weights_R. kidney - Relative): 0.625 mg/kg-day
- LOEL (F, Organ weights_Spleen - Absolute): 1.25 mg/kg-day
- LOEL (F, Organ weights_Spleen - Relative): 0.625 mg/kg-day
- LOEL (F, Organ weights_Thymus - Absolute): 2.5 mg/kg-day
- LOEL (F, Organ weights_Thymus - Relative): 2.5 mg/kg-day
- LOEL (F, Organ weights_Thyroid gland - Absolute): 0.312 mg/kg-day
- LOEL (F, Organ weights_Thyroid gland - Relative): 0.312 mg/kg-day
- LOEL (F, Reproductive toxicity_Altered estrous cyclicity): 1.25 mg/kg-day
- NOEL (F, Survival rates): 2.5 mg/kg-day
- LOEL (F, body weight): 1.25 mg/kg-day
- LOEL (M, Clinical chemistry_Alanine aminotransferase): 0.312 mg/kg-day
- LOEL (M, Clinical chemistry_Albumin): 1.25 mg/kg-day
- LOEL (M, Clinical chemistry_Albumin/globulin ratio): 0.156 mg/kg-day
- LOEL (M, Clinical chemistry_Alkaline phosphatase): 0.312 mg/kg-day
- LOEL (M, Clinical chemistry_Aspartate aminotransferase): 0.156 mg/kg-day
- LOEL (M, Clinical chemistry_Cholesterol): 0.156 mg/kg-day
- NOEL (M, Clinical chemistry_Creatinine kinase): 2.5 mg/kg-day
- LOEL (M, Clinical chemistry_Direct bilirubin): 1.25 mg/kg-day
- LOEL (M, Clinical chemistry_Free thyroxine): 0.312 mg/kg-day
- LOEL (M, Clinical chemistry_Globulin): 0.156 mg/kg-day
- LOEL (M, Clinical chemistry_Indirect bilirubin): 1.25 mg/kg-day
- NOEL (M, Clinical chemistry_Sorbitol dehydrogenase): 2.5 mg/kg-day
- LOEL (M, Clinical chemistry_Testosterone): 1.25 mg/kg-day
- NOEL (M, Clinical chemistry_Thyroid stimulating hormone): 2.5 mg/kg-day
- LOEL (M, Clinical chemistry_Total bile acids): 1.25 mg/kg-day
- LOEL (M, Clinical chemistry_Total bilirubin): 1.25 mg/kg-day
- LOEL (M, Clinical chemistry_Total protein): 0.156 mg/kg-day
- NOEL (M, Clinical chemistry_Total thyroxine): 2.5 mg/kg-day
- NOEL (M, Clinical chemistry_Total triiodothyronine): 2.5 mg/kg-day
- LOEL (M, Clinical chemistry_Triglycerides): 1.25 mg/kg-day
- LOEL (M, Gene expression_Acox1): 0.156 mg/kg-day
- LOEL (M, Gene expression_Acyl-CoA oxidase): 0.156 mg/kg-day
- LOEL (M, Gene expression_Cyp2b1): 0.156 mg/kg-day
- LOEL (M, Gene expression_Cyp2b2): 0.156 mg/kg-day
- LOEL (M, Gene expression_Cyp4a1): 0.156 mg/kg-day
- LOEL (M, Hematology_Erythrocytes): 2.5 mg/kg-day
- NOEL (M, Hematology_Hematocrit): 2.5 mg/kg-day
- NOEL (M, Hematology_Hemoglobin): 2.5 mg/kg-day
- LOEL (M, Hematology_Mean corpuscular hemoglobin concentration): 0.625 mg/kg-day
- LOEL (M, Hematology_Mean corpuscular volume): 1.25 mg/kg-day
- NOEL (M, Hematology_Platelets): 2.5 mg/kg-day
- LOEL (M, Hematology_Reticulocytes): 1.25 mg/kg-day
- LOEL (M, Nonneoplastic effects_Bone marrow - Hypocellularity): 2.5 mg/kg-day
- LOEL (M, Nonneoplastic effects_Epididymis - Duct, exfoliated germ cell): 2.5 mg/kg-day
- NOEL (M, Nonneoplastic effects_Epididymis - Epithelium, apoptosis): 2.5 mg/kg-day
- NOEL (M, Nonneoplastic effects_Epididymis - Hypospermia): 2.5 mg/kg-day
- NOEL (M, Nonneoplastic effects_Forestomach - Epithelium, hyperplasia): 2.5 mg/kg-day
- NOEL (M, Nonneoplastic effects_Forestomach - Inflammation, chronic active): 2.5 mg/kg-day
- NOEL (M, Nonneoplastic effects_Kidney - Nephropathy, chronic progressive): 2.5 mg/kg-day
- NOEL (M, Nonneoplastic effects_Liver - Hepatocyte, Necrosis): 2.5 mg/kg-day
- LOEL (M, Nonneoplastic effects_Liver - Hepatocyte, cytoplasmic alteration): 0.625 mg/kg-day
- LOEL (M, Nonneoplastic effects_Liver - Hepatocyte, hypertrophy): 1.25 mg/kg-day
- LOEL (M, Nonneoplastic effects_Liver - Hepatocyte, vacuolization cytoplasmic): 1.25 mg/kg-day
- NOEL (M, Nonneoplastic effects_Lymph nodes - Mandibular, atrophy): 2.5 mg/kg-day
- NOEL (M, Nonneoplastic effects_Lymph nodes - Mesenteric, atrophy): 2.5 mg/kg-day
- NOEL (M, Nonneoplastic effects_Nose - Olfactory epithelium, degeneration): 2.5 mg/kg-day
- NOEL (M, Nonneoplastic effects_Nose - Olfactory epithelium, hyperplasia): 2.5 mg/kg-day
- NOEL (M, Nonneoplastic effects_Nose - Olfactory epithelium, inflammation, suppurative): 2.5 mg/kg-day
- NOEL (M, Nonneoplastic effects_Nose - Respiratory epithelium, hyperplasia): 2.5 mg/kg-day
- NOEL (M, Nonneoplastic effects_Nose - Respiratory epithelium, inflammation, chronic active): 2.5 mg/kg-day
- NOEL (M, Nonneoplastic effects_Spleen - Atrophy): 2.5 mg/kg-day
- NOEL (M, Nonneoplastic effects_Spleen - Extramedullary hematopoiesis, increased): 2.5 mg/kg-day
- LOEL (M, Nonneoplastic effects_Testes - Germinal epithelium, degeneration): 2.5 mg/kg-day
- LOEL (M, Nonneoplastic effects_Testes - Interstitial cell, atrophy): 1.25 mg/kg-day
- LOEL (M, Nonneoplastic effects_Testes - Seminiferous tubule, spermatid retention): 2.5 mg/kg-day
- LOEL (M, Nonneoplastic effects_Thymus - Atrophy): 2.5 mg/kg-day
- LOEL (M, Nonneoplastic effects_Thymus - Lymphocyte, apoptosis): 1.25 mg/kg-day
- NOEL (M, Nonneoplastic effects_Thyroid gland - Follicular cell hypertrophy): 2.5 mg/kg-day
- LOEL (M, Organ weights_Liver - Absolute): 0.156 mg/kg-day
- LOEL (M, Organ weights_Liver - Relative): 0.156 mg/kg-day
- LOEL (M, Organ weights_R. adrenal gland - Absolute): 0.156 mg/kg-day
- LOEL (M, Organ weights_R. adrenal gland - Relative): 2.5 mg/kg-day
- LOEL (M, Organ weights_R. kidney - Absolute): 2.5 mg/kg-day
- LOEL (M, Organ weights_R. kidney - Relative): 0.625 mg/kg-day
- LOEL (M, Organ weights_R. testis - Absolute): 2.5 mg/kg-day
- LOEL (M, Organ weights_Spleen - Absolute): 1.25 mg/kg-day
- LOEL (M, Organ weights_Spleen - Relative): 2.5 mg/kg-day
- LOEL (M, Organ weights_Thymus - Absolute): 1.25 mg/kg-day
- LOEL (M, Organ weights_Thymus - Relative): 1.25 mg/kg-day
- NOEL (M, Organ weights_Thyroid gland - Absolute): 2.5 mg/kg-day
- LOEL (M, Organ weights_Thyroid gland - Relative): 1.25 mg/kg-day
- LOEL (M, Reproductive toxicity_Altered sperm parameters): 2.5 mg/kg-day
- NOEL (M, Survival rates): 2.5 mg/kg-day
- LOEL (M, body weight): 1.25 mg/kg-day

From EPA's ToxValDB 9.5
